Data from patent US11174252B2, “Heterocyclic compounds as kinase inhibitors” (priority 2018, dated 2021).
Like-named read-outs stand apart in the source and are kept apart here.

How the values were obtained:
FMS kinase = FMS kinase (Homo sapiens (Human), UniProt P07333); test: LanthaScreen kinase assay (ATP, fluorescent-PolyGT substrate, TR-FRET); assay type: biochemical
MCF-7 = test: Cancer cell proliferation assay, single agent; assay type: cell-based; settings: Homo sapiens
PI3Kδ kinase = PI3Kδ kinase (Homo sapiens (Human), UniProt O00329); test: PI3Kδ kinase ADP-Glo assay (Reaction Biology Corporation); settings: read-out: PI3Kδ IC50
PI3Kδ kinase, sequence (O00329 whole entry): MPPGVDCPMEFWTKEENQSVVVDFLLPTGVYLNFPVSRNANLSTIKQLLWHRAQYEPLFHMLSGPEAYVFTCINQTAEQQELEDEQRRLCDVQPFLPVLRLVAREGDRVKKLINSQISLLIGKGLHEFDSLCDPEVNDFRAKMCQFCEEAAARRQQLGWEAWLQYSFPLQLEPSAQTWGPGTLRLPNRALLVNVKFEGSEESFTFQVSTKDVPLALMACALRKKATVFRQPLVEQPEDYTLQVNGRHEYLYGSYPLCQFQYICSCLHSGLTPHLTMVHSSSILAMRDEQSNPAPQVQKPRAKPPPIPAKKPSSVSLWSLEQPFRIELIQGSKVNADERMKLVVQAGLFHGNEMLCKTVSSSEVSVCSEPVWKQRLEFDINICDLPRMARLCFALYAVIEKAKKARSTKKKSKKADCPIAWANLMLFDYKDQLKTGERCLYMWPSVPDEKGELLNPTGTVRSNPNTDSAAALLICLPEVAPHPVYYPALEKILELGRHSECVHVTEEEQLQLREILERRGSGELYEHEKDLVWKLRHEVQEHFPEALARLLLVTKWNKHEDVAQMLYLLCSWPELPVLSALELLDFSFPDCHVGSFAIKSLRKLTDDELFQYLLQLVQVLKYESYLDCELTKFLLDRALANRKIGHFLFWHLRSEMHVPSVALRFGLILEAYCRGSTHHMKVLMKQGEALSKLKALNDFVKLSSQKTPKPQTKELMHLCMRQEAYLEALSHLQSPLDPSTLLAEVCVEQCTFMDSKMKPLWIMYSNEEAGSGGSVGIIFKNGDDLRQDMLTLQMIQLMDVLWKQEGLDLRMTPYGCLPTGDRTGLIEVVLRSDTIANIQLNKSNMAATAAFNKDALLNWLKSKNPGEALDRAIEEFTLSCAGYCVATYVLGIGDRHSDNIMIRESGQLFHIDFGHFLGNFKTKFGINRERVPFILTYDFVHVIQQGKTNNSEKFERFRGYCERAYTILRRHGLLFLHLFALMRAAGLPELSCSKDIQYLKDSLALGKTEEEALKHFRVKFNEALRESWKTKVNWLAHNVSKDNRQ
PI3Kδ kinase, sequence (P27986 whole entry partner): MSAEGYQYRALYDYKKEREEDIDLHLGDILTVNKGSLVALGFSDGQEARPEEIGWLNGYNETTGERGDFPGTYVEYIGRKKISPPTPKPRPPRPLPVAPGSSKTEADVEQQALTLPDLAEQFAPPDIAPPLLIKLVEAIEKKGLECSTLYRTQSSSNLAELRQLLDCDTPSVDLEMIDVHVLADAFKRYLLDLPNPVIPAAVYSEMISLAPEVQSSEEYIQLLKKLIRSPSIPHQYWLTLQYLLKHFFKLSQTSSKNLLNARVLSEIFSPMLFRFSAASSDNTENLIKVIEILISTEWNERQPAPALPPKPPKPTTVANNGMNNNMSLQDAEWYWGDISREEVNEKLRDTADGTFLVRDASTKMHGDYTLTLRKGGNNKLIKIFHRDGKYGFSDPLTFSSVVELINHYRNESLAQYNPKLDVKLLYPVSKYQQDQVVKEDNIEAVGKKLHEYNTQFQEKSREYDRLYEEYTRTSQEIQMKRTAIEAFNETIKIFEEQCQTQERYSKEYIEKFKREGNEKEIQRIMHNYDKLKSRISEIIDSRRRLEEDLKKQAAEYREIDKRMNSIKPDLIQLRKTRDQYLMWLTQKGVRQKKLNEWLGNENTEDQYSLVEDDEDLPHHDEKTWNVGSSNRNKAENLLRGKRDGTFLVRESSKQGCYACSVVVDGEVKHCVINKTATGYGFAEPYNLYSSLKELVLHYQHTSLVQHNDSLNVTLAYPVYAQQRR

CDK4 = CDK4 (Homo sapiens (Human), UniProt P11802); test: In vitro kinase inhibition, luminescence (ADP-Glo) with retinoblastoma substrate; assay type: biochemical
CDK4, sequence (P11802 whole entry): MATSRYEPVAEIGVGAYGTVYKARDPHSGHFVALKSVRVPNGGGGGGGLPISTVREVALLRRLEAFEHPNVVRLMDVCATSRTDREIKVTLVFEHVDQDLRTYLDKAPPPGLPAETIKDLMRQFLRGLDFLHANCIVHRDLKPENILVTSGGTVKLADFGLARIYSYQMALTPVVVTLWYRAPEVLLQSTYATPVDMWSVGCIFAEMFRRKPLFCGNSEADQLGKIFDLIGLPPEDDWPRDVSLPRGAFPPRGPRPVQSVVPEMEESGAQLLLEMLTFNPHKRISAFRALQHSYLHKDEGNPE
CDK4, sequence (P24385 whole entry partner): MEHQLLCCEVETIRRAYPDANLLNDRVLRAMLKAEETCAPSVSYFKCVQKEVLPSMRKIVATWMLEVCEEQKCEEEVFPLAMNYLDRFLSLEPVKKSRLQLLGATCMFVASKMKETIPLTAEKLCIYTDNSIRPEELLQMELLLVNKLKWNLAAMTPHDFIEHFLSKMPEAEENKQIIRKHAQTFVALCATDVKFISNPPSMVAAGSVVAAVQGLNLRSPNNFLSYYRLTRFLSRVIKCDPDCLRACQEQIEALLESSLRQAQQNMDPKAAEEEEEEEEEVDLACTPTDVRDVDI

CDK6 = CDK6 (Homo sapiens (Human), UniProt Q00534); test: biochemical; assay type: biochemical
DU4475 = test: Cancer cell proliferation assay, single agent; assay type: cell-based; settings: Homo sapiens
[1] = MCF7, read-out: IC50 (nM) MCF-7
[2] = MCF7, MCF-7 cells, treated for 24-168 hours, read-out: IC50 (nM) MCF-7
[3] = DU-4475, DU4475 cells, treated for 24-168 hours, read-out: IC50 (nM) DU4475
[4] = DU-4475, read-out: IC50 (nM) DU4475

FMS kinase, sequence (P07333 20-972): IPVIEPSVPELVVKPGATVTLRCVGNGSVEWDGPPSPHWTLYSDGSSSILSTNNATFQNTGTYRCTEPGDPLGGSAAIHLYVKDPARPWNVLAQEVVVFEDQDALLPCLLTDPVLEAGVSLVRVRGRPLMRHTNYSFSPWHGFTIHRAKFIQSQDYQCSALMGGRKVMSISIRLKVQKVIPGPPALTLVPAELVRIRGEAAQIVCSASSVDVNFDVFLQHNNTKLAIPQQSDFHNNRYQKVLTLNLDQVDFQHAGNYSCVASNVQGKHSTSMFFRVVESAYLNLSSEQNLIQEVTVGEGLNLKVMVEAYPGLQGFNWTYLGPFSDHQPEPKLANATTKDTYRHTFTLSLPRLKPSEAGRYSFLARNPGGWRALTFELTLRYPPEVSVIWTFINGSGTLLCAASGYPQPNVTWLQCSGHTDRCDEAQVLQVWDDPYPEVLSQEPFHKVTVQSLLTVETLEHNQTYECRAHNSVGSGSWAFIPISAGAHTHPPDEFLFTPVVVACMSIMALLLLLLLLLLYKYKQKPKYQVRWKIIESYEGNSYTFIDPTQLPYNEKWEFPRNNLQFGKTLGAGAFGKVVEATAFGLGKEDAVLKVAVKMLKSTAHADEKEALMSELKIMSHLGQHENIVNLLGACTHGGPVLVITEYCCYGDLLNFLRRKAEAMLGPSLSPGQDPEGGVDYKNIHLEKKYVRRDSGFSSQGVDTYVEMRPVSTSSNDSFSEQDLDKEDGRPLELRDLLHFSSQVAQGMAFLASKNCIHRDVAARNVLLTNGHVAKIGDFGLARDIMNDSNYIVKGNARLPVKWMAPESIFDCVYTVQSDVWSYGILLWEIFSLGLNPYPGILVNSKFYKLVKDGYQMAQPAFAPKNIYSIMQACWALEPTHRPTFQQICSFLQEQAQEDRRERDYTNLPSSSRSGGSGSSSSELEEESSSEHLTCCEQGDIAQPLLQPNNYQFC

IC50 (FMS kinase) [µM]	IC50 (PI3Kδ kinase) [µM]	IC50 (CDK4) [µM]	IC50 (MCF-7; [2]) [nM]	IC50 (CDK6) [µM]	IC50 (DU4475; [3]) [nM]	Structure (SMILES)	IC50 (MCF-7; [1]) [nM]	IC50 (DU4475; [4]) [nM]
0.068	–	0.0035	55	0.0075	30	CC(C)N1CCOc2c(F)cc(-c3nc(Nc4ccc(C(=O)N5CCOCC5)c(F)c4)ncc3F)cc21 [Compound 457, (2-fluoro-4-((5-fluoro-4-(8-fluoro-4-isopropyl-3,4-dihydro-2H-benzo[b][1,4]oxazin-6-yl)pyrimidin-2-yl)amino)phenyl)(morpholino)methanone]	–	–
0.017	–	0.0035	30	0.009	50	CCN1CCN(Cc2ccc(Nc3ncc(F)c(-c4cc(F)c5c(c4)N(C(C)C)CCO5)n3)cc2F)CC1 [Compound 461, N-(4-((4-ethylpiperazin-1-yl)methyl)-3-fluorophenyl)-5-fluoro-4-(8-fluoro-4-isopropyl-3,4-dihydro-2H-benzo[b][1,4]oxazin-6-yl)pyrimidin-2-amine]	–	–
0.025	–	0.0055	40	0.009	65	CC(C)N1CCOc2c(F)cc(-c3nc(Nc4ccc(CN5CCC(N(C)C)CC5)c(F)c4)ncc3F)cc21 [Compound 462, N-(4-((4-(dimethylamino)piperidin-1-yl)methyl)-3-fluorophenyl)-5-fluoro-4-(8-fluoro-4-isopropyl-3,4-dihydro-2H-benzo[b][1,4]oxazin-6-yl)pyrimidin-2-amine]	–	–
0.017	–	0.0015	20	0.0035	25	CC(C)N1CCOc2c(F)cc(-c3nc(Nc4ccc(C(=O)N5CCC(N(C)C)CC5)c(F)c4)ncc3F)cc21 [Compound 463, (4-(dimethylamino)piperidin-1-yl)(2-fluoro-4-((5-fluoro-4-(8-fluoro-4-isopropyl-3,4-dihydro-2H-benzo[b][1,4]oxazin-6-yl)pyrimidin-2-yl)amino)phenyl)methanone]	–	–
0.042	–	0.0085	85	0.022	80	CCN1CCN(C(=O)c2ccc(Nc3ncc(F)c(-c4cc(F)c5c(c4)N(C(C)C)CCO5)n3)cc2F)CC1 [Compound 464, (4-ethylpiperazin-1-yl)(2-fluoro-4-((5-fluoro-4-(8-fluoro-4-isopropyl-3,4-dihydro-2H-benzo[b][1,4]oxazin-6-yl)pyrimidin-2-yl)amino)phenyl)methanone]	–	–
0.046	> 30	–	495	–	–	CC(C)N1CCOc2c(F)cc(-c3nc(Nc4ccc(N5CCSCC5)c(F)c4)ncc3F)cc21 [Compound 469, 5-fluoro-4-(8-fluoro-4-isopropyl-3,4-dihydro-2H-benzo[b][1,4]oxazin-6-yl)-N-(3-fluoro-4-thiomorpholinophenyl)pyrimidin-2-amine]	–	–
–	–	–	648	–	3790	CC1CN(C(=O)c2ccc(Nc3ncc(F)c(-c4cc(F)c5c(c4)N(C(C)C)CCO5)n3)nc2)CC(C)O1 (stereo not shown) [Compound 511, (2,6-dimethylmorpholino)(6-((5-fluoro-4-(8-fluoro-4-isopropyl-3,4-dihydro-2H-benzo[b][1,4]oxazin-6-yl)pyrimidin-2-yl)amino)pyridin-3-yl)methanone]	–	–
–	–	–	13	–	< 7	CC(C)N1CCOc2c(F)cc(-c3nc(Nc4cccc(S(N)(=O)=O)c4)ncc3F)cc21 [Compound 520]	–	–
–	–	0.0055	3670	0.0198	7700	CC(C)N1CCOc2c(F)cc(-c3nc(Nc4ccc(C(N)=O)cn4)ncc3F)cc21 [Compound 521, 6-((5-fluoro-4-(8-fluoro-4-isopropyl-3,4-dihydro-2H-benzo[b][1,4]oxazin-6-yl)pyrimidin-2-yl)amino)nicotinamide]	–	–
–	–	0.036	345	0.105	395	CC(C)N1CCOc2c(F)cc(-c3nc(Nc4ccc(S(=O)(=O)N5CCN(C)CC5)cc4)ncc3F)cc21 [Compound 522, 5-fluoro-4-(8-fluoro-4-isopropyl-3,4-dihydro-2H-benzo[b][1,4]oxazin-6-yl)-N-(4-((4-methylpiperazin-1-yl)sulfonyl)phenyl)pyrimidin-2-amine]	–	–
–	–	–	17	0.003	20	CC(C)N1CCOc2c(F)cc(-c3nc(Nc4ccc(C(N)=O)c(F)c4)ncc3F)cc21 [Compound 790, 2-fluoro-4-((5-fluoro-4-(8-fluoro-4-isopropyl-3,4-dihydro-2H-benzo[b][1,4]oxazin-6-yl)pyrimidin-2-yl)amino)benzamide]	–	–
–	–	0.009	90	0.041	205	CC(C)N1CCOc2c(F)cc(-c3nc(Nc4ccc(S(=O)(=O)NC5CCNCC5)cc4)ncc3F)cc21 [Compound 791, 4-((5-fluoro-4-(8-fluoro-4-isopropyl-3,4-dihydro-2H-benzo[b][1,4]oxazin-6-yl)pyrimidin-2-yl)amino)-N-(piperidin-4-yl)benzenesulfonamide]	–	–

The remaining lines, values behind:

Structure (SMILES)	IC50 (FMS kinase) [µM]	IC50 (PI3Kδ kinase) [µM]	IC50 (CDK4) [µM]	IC50 (MCF-7; [2]) [nM]	IC50 (CDK6) [µM]	IC50 (DU4475; [3]) [nM]	IC50 (MCF-7; [1]) [nM]	IC50 (DU4475; [4]) [nM]
CC(C)N1CCOc2c(F)cc(-c3nc(Nc4ccc(N5CCNCC5)nc4)ncc3F)cc21 [Compound 23, 5-fluoro-4-(8-fluoro-4-isopropyl-3,4-dihydro-2H-benzo[b][1,4]oxazin-6-yl)-N-(6-(piperazin-1-yl)pyridin-3-yl)pyrimidin-2-amine]	0.025	4.88	–	–	–	–	< 10	–
CC(C)N1CCOc2c(F)cc(-c3nc(Nc4cnn(C5CCNCC5)c4)ncc3F)cc21 [Compound 448, 5-fluoro-4-(8-fluoro-4-isopropyl-3,4-dihydro-2H-benzo[b][1,4]oxazin-6-yl)-N-(1-(piperidin-4-yl)-1H-pyrazol-4-yl)pyrimidin-2-amine]	0.008	8.02	0.0032	50	–	–	–	–
CC(C)N1CCOc2c(F)cc(-c3nc(Nc4ccc(C(=O)N5CCC(O)CC5)c(F)c4)ncc3F)cc21 [Compound 458, (2-fluoro-4-((5-fluoro-4-(8-fluoro-4-isopropyl-3,4-dihydro-2H-benzo[b][1,4]oxazin-6-yl)pyrimidin-2-yl)amino)phenyl)(4-hydroxypiperidin-1-yl)methanone]	0.029	–	0.0005	30	0.01	–	–	35
CCN1CCC(c2ccc(Nc3ncc(F)c(-c4cc(F)c5c(c4)N(C(C)C)CCO5)n3)nc2)CC1 [Compound 501, N-(5-(1-ethylpiperidin-4-yl)pyridin-2-yl)-5-fluoro-4-(8-fluoro-4-isopropyl-3,4-dihydro-2H-benzo[b][1,4]oxazin-6-yl)pyrimidin-2-amine]	–	–	0.002	–	0.005	–	140	1020
Cc1nc(Nc2ncc(F)c(-c3cc(F)c4c(c3)N(C(C)C)CCO4)n2)ccc1C1CCN(C)CC1 [Compound 503, 5-fluoro-4-(8-fluoro-4-isopropyl-3,4-dihydro-2H-benzo[b][1,4]oxazin-6-yl)-N-(6-methyl-5-(1-methylpiperidin-4-yl)pyridin-2-yl)pyrimidin-2-amine]	–	–	0.005	240	0.018	1260	–	–
CC(C)N1CCOc2c(F)cc(-c3nc(Nc4ccc(C5CCN(C(=O)CO)CC5)cn4)ncc3F)cc21 [Compound 510, 1-(4-(6-((5-fluoro-4-(8-fluoro-4-isopropyl-3,4-dihydro-2H-benzo[b][1,4]oxazin-6-yl)pyrimidin-2-yl)amino)pyridin-3-yl)piperidin-1-yl)-2-hydroxyethan-1-one]	–	–	0.003	–	0.004	–	293	1970
CC1CN(c2ccc(Nc3ncc(F)c(-c4cc(F)c5c(c4)N(C(C)C)CCO5)n3)nc2)CC(C)O1 (stereo not shown) [Compound 515, N-(5-(2,6-dimethylmorpholino)pyridin-2-yl)-5-fluoro-4-(8-fluoro-4-isopropyl-3,4-dihydro-2H-benzo[b][1,4]oxazin-6-yl)pyrimidin-2-amine]	–	–	0.145	2500	> 0.2	> 10000	–	–
CC(C)N1CCOc2c(F)cc(-c3nc(Nc4ccc(CN5CCN(CC6CC6)CC5)cn4)ncc3F)cc21 [Compound 516, N-(5-((4-(cyclopropylmethyl)piperazin-1-yl)methyl)pyridin-2-yl)-5-fluoro-4-(8-fluoro-4-isopropyl-3,4-dihydro-2H-benzo[b][1,4]oxazin-6-yl)pyrimidin-2-amine]	–	–	0.001	155	0.004	995	–	–
CC(C)N1CCOc2c(F)cc(-c3nc(Nc4ccc(C5CCN(C)CC5)nn4)ncc3F)cc21 [Compound 517, N-(5-fluoro-4-(8-fluoro-4-isopropyl-3,4-dihydro-2H-benzo[b][1,4]oxazin-6-yl)pyrimidin-2-yl)-6-(1-methylpiperidin-4-yl)pyridazin-3-amine]	–	–	0.0015	108	0.004	275	–	–
CC(C)N1CCOc2c(F)cc(-c3nc(Nc4ccc(N5CCC(N)CC5)cn4)ncc3F)cc21 [Compound 788, N-(5-(4-aminopiperidin-1-yl)pyridin-2-yl)-5-fluoro-4-(8-fluoro-4-isopropyl-3,4-dihydro-2H-benzo[b][1,4]oxazin-6-yl)pyrimidin-2-amine]	–	–	0.002	130	0.004	–	–	920
CC(C)N1CCOc2c(F)cc(-c3nc(Nc4ccc(CN5CCN(C)CC5)c(F)c4)ncc3F)cc21 [Compound 792, 5-fluoro-N-(3-fluoro-4-((4-methylpiperazin-1-yl)methyl)phenyl)-4-(8-fluoro-4-isopropyl-3,4-dihydro-2H-benzo[b][1,4]oxazin-6-yl)pyrimidin-2-amine]	–	–	0.004	32	0.004	–	–	75
